The record followed here is publication PMC6893898, “Receptor Interaction Profiles of 4-Alkoxy-Substituted 2,5-Dimethoxyphenethylamines and Related Amphetamines” (Frontiers in Pharmacology, 2019).

Structures are written as SMILES.

The target in one test is hSERT (Homo sapiens, UniProt P31645). The test is described as follows: Radioligand binding, SERT ([3H]citalopram). Details: expressed in transfected cells; host or cells: HEK 293 (membrane preparation).
hSERT, sequence (P31645 whole entry): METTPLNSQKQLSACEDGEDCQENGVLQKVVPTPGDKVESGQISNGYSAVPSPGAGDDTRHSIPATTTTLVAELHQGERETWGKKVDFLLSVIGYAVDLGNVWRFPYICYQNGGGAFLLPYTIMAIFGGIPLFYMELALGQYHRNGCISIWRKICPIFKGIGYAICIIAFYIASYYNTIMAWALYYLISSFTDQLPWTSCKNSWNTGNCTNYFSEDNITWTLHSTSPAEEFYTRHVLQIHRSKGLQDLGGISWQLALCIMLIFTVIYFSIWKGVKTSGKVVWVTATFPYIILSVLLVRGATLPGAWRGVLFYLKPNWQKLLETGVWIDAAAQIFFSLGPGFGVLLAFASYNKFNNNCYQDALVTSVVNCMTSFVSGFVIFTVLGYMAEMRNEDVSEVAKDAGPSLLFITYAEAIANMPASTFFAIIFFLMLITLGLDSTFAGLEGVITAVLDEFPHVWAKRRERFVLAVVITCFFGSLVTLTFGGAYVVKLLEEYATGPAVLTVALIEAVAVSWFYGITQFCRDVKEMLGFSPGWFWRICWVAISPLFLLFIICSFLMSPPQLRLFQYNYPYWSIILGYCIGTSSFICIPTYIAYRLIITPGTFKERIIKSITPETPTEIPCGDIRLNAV
Conditions: not given
As a reminder, the Ki is a dissociation constant, usually derived from enzyme kinetics or from competition with a known ligand. Read a low Ki as tighter binding. Take `CCOc1cc(OC)c(CCN)cc1OC` [2C-O-2, 2,5-dimethoxy-4-ethoxyphenethylamine]: the Ki was more than 8.6 µM.
Still for that read-out and setting: with `C=C(C)COc1cc(OC)c(CCN)cc1OC` [2C-O-3, 2,5-dimethoxy-4-methallyloxyphenethylamine] the figure was more than 8.6 µM; with `C=CCOc1cc(OC)c(CCN)cc1OC` [2C-O-16, 4-allyloxy-2,5-dimethoxyphenethylamine], more than 8.6 µM.
As for `COc1cc(OCCF)c(OC)cc1CCN` [2C-O-21, 2,5-dimethoxy-4-(2-fluoroethoxy)phenethylamine], the Ki is more than 8.6 µM.
On the same count and under the same terms, in the case of `COc1cc(OCC(F)F)c(OC)cc1CCN` [2C-O-21.5, 4-(2,2-difluoroethoxy)-2,5-dimethoxyphenethylamine] it was more than 8.6 µM.
With `COc1cc(OCC(F)(F)F)c(OC)cc1CCN` [2C-O-22, 2,5-dimethoxy-4-(2,2,2-trifluoroethoxy)phenethylamine], the Ki was more than 8.6 µM.
On the same count and under the same terms, in the case of `COc1cc(OCc2ccccc2)c(OC)cc1CCN` [2C-O-27, 4-benzyloxy-2,5-dimethoxyphenethylamine] it was more than 8.6 µM; in that of `C=CCOc1cc(OC)c(CC(C)N)cc1OC` (stereo not shown) [MALM, 4-allyloxy-2,5-dimethoxyamphetamine], more than 8.6 µM.
The same measure, in the same setting: in the case of `COc1cc(OCC(F)F)c(OC)cc1CC(C)N` (stereo not shown) [MDFEM, 4-(2,2-difluoroethoxy)-2,5-dimethoxyamphetamine] it was more than 8.6 µM; in that of `COc1cc(OCCF)c(OC)cc1CC(C)N` (stereo not shown) [MFEM, 2,5-dimethoxy-4-(2-fluoroethoxy)amphetamine], more than 8.6 µM; in that of `COc1cc(OC(C)C)c(OC)cc1CC(C)N` (stereo not shown) [MIPM, 2,5-dimethoxy-4-isopropoxyamphetamine], more than 8.6 µM.
Same read-out and setting: with `C=C(C)COc1cc(OC)c(CC(C)N)cc1OC` (stereo not shown) [MMALM, 2,5-dimethoxy-4-methallyloxyamphetamine] the figure was more than 8.6 µM; with `COc1cc(OCC(F)(F)F)c(OC)cc1CC(C)N` (stereo not shown) [MTFEM, 2,5-dimethoxy-4-(2,2,2-trifluoroethoxy)amphetamine], more than 8.6 µM.

A further test concerns the target T1, human TAAR1 (Homo sapiens, UniProt Q96RJ0).
T1 construct: expressed in transfected cells; host or cells: HEK 293 (recombinant, Geneticin/hygromycin B selection)
T1 sequence (Q96RJ0 1-339): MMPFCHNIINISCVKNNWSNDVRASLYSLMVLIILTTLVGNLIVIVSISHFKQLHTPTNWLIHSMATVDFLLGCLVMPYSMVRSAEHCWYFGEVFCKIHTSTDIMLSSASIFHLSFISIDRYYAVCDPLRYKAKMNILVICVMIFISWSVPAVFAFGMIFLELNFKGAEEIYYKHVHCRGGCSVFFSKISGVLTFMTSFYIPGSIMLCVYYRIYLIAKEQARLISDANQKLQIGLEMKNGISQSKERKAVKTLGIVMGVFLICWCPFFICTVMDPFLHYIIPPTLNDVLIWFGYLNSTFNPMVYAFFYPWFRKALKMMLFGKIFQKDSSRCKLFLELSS
The test is described as follows: Activity at the human TAAR1 (cAMP, HEK 293 cells). In kind it is cell-based. As to conditions: human TAAR1 EC50 ± SD. Here is the method:
Activity at the human TAAR1 was examined as previously described in full detail ([Luethi et al., 2018]). In summary, human TAAR1 expressing recombinant HEK 293 cells were grown in 250 ml falcon culture flasks containing 30 ml of high glucose DMEM (10% heat inactivated fetal calf serum, 500 µg/ml Geneticin [Gibco, Zug, Switzerland] and 500 µg/ml hygromycin B) at 37°C and 5% CO2/95% air. At 80-90% confluency, the cells were collected. The medium was aspirated, cells were washed with phosphate-buffered saline (PBS) and then trypsinized for 5 min at 37°C with 5 ml of trypsin/EDTA solution. Next, 45 ml of medium was added and the mixture was transferred into a falcon tube. After centrifugation (900 rpm, 3 min, RT), the supernatant was aspirated and the remaining cell pellet was resuspended in fresh medium to […]. Using a multipipette, 100 µl of cells were transferred (80,000 cells/well) into a 96-well plate (BIOCOAT 6640, Becton Dickinson, Allschwil, Switzerland) and incubated for 20 h at 37°C. For the cAMP assay, the medium was aspirated replaced with 50 µL PBS without Ca^2+ and Mg^2+ ions. The PBS was then extracted using snap inversion and the plate was softly tapped against tissue; 90 µL of Krebs-Ringer Bicarbonate buffer (Sigma-Aldrich) containing 1 mM IBMX was added and incubated for 60 min at 37°C and 5% CO2/95% air. A concentration range between 300 pM and 30 µM of test compounds was examined in duplicate. A standard curve with a range of cAMP concentrations (0.13 nM to 10 µM) was created per 96-well plate. Each experiment was accompanied with a reference plate that included three compounds; RO5256390, β-phenylethylamine, and p-tyramine. The cells were exposed to either 30 µl of compound solution, 30 µl of β-phenylethylamine (as maximal response), or a basal control in PBS (containing 1 mM IBMX) for 40 min at 37°C. Next, under forceful shaking using black lids, the cells were exposed to 50 µl of 3x detection mix solution (composed of Ru-cAMP Alexa700 anti-cAMP antibody and lysis buffer) for 120 min at room temperature in order to lyse the cells. Using the NanoScan reader (Innovative Optische Messtechnik, Berlin, Germany; 456 nm excitation wavelength; 630 and 700 nm emission wavelengths), the fluorescence was examined and the fluorescence resonance energy transfer (FRET) signal was determined using the following equation; FRET (700 nm) − P × FRET (630 nm), where P = Ru (700 nm)/Ru (630 nm). Receptor binding affinity at the human TAAR1 was not determined since unfortunately, there are no suitable radioligands available for this receptor.
Functional activity of the derivatives was only examined at the human TAAR1 and not at the mouse and rat TAAR1, because functional assays are not set up.
In general, EC50 refers to the concentration giving half of the maximal effect. Lower therefore signals a more potent agent. In turn, `CCOc1cc(OC)c(CCN)cc1OC` [2C-O-2, 2,5-dimethoxy-4-ethoxyphenethylamine] returned an EC50 of 9.6 ± 6.34 µM.
Same read-out and setting: in the case of `C=C(C)COc1cc(OC)c(CCN)cc1OC` [2C-O-3, 2,5-dimethoxy-4-methallyloxyphenethylamine] it was more than 30 µM; in that of `C=CCOc1cc(OC)c(CCN)cc1OC` [2C-O-16, 4-allyloxy-2,5-dimethoxyphenethylamine], more than 30 µM.
In turn, `COc1cc(OCCF)c(OC)cc1CCN` [2C-O-21, 2,5-dimethoxy-4-(2-fluoroethoxy)phenethylamine] returned a half-maximal effective concentration (EC50) of more than 30 µM.
As for `COc1cc(OCC(F)F)c(OC)cc1CCN` [2C-O-21.5, 4-(2,2-difluoroethoxy)-2,5-dimethoxyphenethylamine], the EC50 is more than 30 µM.
`COc1cc(OCC(F)(F)F)c(OC)cc1CCN` [2C-O-22, 2,5-dimethoxy-4-(2,2,2-trifluoroethoxy)phenethylamine] registered an EC50 of 3.6 ± 2.4 µM.
Still for that read-out and setting: with `COc1cc(OCc2ccccc2)c(OC)cc1CCN` [2C-O-27, 4-benzyloxy-2,5-dimethoxyphenethylamine] the figure was more than 30 µM.
Same read-out and setting: with `C=CCOc1cc(OC)c(CC(C)N)cc1OC` (stereo not shown) [MALM, 4-allyloxy-2,5-dimethoxyamphetamine] the figure was more than 30 µM; with `COc1cc(OCC(F)F)c(OC)cc1CC(C)N` (stereo not shown) [MDFEM, 4-(2,2-difluoroethoxy)-2,5-dimethoxyamphetamine], more than 30 µM; with `COc1cc(OCCF)c(OC)cc1CC(C)N` (stereo not shown) [MFEM, 2,5-dimethoxy-4-(2-fluoroethoxy)amphetamine], more than 30 µM.
Still for that read-out and setting: with `COc1cc(OC(C)C)c(OC)cc1CC(C)N` (stereo not shown) [MIPM, 2,5-dimethoxy-4-isopropoxyamphetamine] the figure was more than 30 µM; with `C=C(C)COc1cc(OC)c(CC(C)N)cc1OC` (stereo not shown) [MMALM, 2,5-dimethoxy-4-methallyloxyamphetamine], more than 30 µM; with `COc1cc(OCC(F)(F)F)c(OC)cc1CC(C)N` (stereo not shown) [MTFEM, 2,5-dimethoxy-4-(2,2,2-trifluoroethoxy)amphetamine], more than 30 µM.

For another test, the target named is T2, mouse TAAR1 (Mus musculus, UniProt Q923Y8).
T2 construct: expressed in transfected cells; host or cells: HEK 293 (membrane preparation)
T2 sequence (Q923Y8 whole entry): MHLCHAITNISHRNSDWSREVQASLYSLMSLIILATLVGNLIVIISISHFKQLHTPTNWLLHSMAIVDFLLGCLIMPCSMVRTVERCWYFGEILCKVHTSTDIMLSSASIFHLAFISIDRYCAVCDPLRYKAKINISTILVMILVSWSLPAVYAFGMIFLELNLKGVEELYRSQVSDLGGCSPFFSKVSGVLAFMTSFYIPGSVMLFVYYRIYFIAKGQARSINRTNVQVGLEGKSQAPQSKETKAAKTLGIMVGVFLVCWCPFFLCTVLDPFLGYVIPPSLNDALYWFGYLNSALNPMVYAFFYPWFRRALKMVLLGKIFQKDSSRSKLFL
The test is described as follows: Radioligand binding, mouse TAAR1 ([3H]RO5166017).
Conditions: not given
For `CCOc1cc(OC)c(CCN)cc1OC` [2C-O-2, 2,5-dimethoxy-4-ethoxyphenethylamine], affinity was put at a Ki of 4 ± 1.1 µM.
On to `C=C(C)COc1cc(OC)c(CCN)cc1OC` [2C-O-3, 2,5-dimethoxy-4-methallyloxyphenethylamine], for which the Ki is 1.1 ± 0.4 µM.
`C=CCOc1cc(OC)c(CCN)cc1OC` [2C-O-16, 4-allyloxy-2,5-dimethoxyphenethylamine] gave a Ki of 2.5 ± 1 µM.
The same measure, in the same setting: in the case of `COc1cc(OCCF)c(OC)cc1CCN` [2C-O-21, 2,5-dimethoxy-4-(2-fluoroethoxy)phenethylamine] it was more than 4.9 µM.
Same read-out and setting: in the case of `COc1cc(OCC(F)F)c(OC)cc1CCN` [2C-O-21.5, 4-(2,2-difluoroethoxy)-2,5-dimethoxyphenethylamine] it was more than 4.8 µM; in that of `COc1cc(OCC(F)(F)F)c(OC)cc1CCN` [2C-O-22, 2,5-dimethoxy-4-(2,2,2-trifluoroethoxy)phenethylamine], 2.5 ± 0.4 µM.
Same read-out and setting: with `COc1cc(OCc2ccccc2)c(OC)cc1CCN` [2C-O-27, 4-benzyloxy-2,5-dimethoxyphenethylamine] the figure was 0.65 ± 0.19 µM.
Regarding `C=CCOc1cc(OC)c(CC(C)N)cc1OC` (stereo not shown) [MALM, 4-allyloxy-2,5-dimethoxyamphetamine], the affinity corresponds to a Ki of 2 ± 0.4 µM.
As to `COc1cc(OCC(F)F)c(OC)cc1CC(C)N` (stereo not shown) [MDFEM, 4-(2,2-difluoroethoxy)-2,5-dimethoxyamphetamine], the Ki was more than 4.8 µM.
As to `COc1cc(OCCF)c(OC)cc1CC(C)N` (stereo not shown) [MFEM, 2,5-dimethoxy-4-(2-fluoroethoxy)amphetamine], the Ki was more than 4.9 µM.
The same measure, in the same setting: with `COc1cc(OC(C)C)c(OC)cc1CC(C)N` (stereo not shown) [MIPM, 2,5-dimethoxy-4-isopropoxyamphetamine] the figure was more than 4.8 µM; with `C=C(C)COc1cc(OC)c(CC(C)N)cc1OC` (stereo not shown) [MMALM, 2,5-dimethoxy-4-methallyloxyamphetamine], 1.7 ± 0.9 µM; with `COc1cc(OCC(F)(F)F)c(OC)cc1CC(C)N` (stereo not shown) [MTFEM, 2,5-dimethoxy-4-(2,2,2-trifluoroethoxy)amphetamine], 4.5 ± 0.5 µM.

For the next test, the target named is T3, dopaminergic D2 receptor (Homo sapiens, UniProt P14416).
T3 construct: expressed in transfected cells; host or cells: HEK 293 (membrane preparation)
T3 sequence (P14416 whole entry): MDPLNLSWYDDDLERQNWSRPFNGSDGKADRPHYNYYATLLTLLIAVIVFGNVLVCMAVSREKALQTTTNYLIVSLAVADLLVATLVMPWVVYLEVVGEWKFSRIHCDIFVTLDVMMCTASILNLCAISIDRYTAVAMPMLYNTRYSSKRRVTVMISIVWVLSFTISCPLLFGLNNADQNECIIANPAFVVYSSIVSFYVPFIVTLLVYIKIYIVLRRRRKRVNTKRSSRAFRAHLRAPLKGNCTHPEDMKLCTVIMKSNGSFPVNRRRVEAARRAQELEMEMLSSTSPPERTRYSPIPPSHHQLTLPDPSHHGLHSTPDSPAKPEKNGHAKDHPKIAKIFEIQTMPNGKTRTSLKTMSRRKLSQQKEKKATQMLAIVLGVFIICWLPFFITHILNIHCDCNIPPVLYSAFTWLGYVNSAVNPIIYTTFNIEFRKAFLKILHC
The test is described as follows: Radioligand binding, dopaminergic D2 receptor ([3H]spiperone).
Conditions: not given
On to `CCOc1cc(OC)c(CCN)cc1OC` [2C-O-2, 2,5-dimethoxy-4-ethoxyphenethylamine], for which the Ki is more than 4.8 µM.
On to `C=C(C)COc1cc(OC)c(CCN)cc1OC` [2C-O-3, 2,5-dimethoxy-4-methallyloxyphenethylamine], for which the inhibitory constant (Ki) is more than 4.8 µM.
Still for that read-out and setting: in the case of `C=CCOc1cc(OC)c(CCN)cc1OC` [2C-O-16, 4-allyloxy-2,5-dimethoxyphenethylamine] it was more than 4.8 µM; in that of `COc1cc(OCCF)c(OC)cc1CCN` [2C-O-21, 2,5-dimethoxy-4-(2-fluoroethoxy)phenethylamine], more than 4.8 µM.
`COc1cc(OCC(F)F)c(OC)cc1CCN` [2C-O-21.5, 4-(2,2-difluoroethoxy)-2,5-dimethoxyphenethylamine]: the Ki is more than 4.8 µM.
Still for that read-out and setting: with `COc1cc(OCC(F)(F)F)c(OC)cc1CCN` [2C-O-22, 2,5-dimethoxy-4-(2,2,2-trifluoroethoxy)phenethylamine] the figure was more than 4.8 µM; with `COc1cc(OCc2ccccc2)c(OC)cc1CCN` [2C-O-27, 4-benzyloxy-2,5-dimethoxyphenethylamine], more than 4.8 µM.
The same measure, in the same setting: with `C=CCOc1cc(OC)c(CC(C)N)cc1OC` (stereo not shown) [MALM, 4-allyloxy-2,5-dimethoxyamphetamine] the figure was more than 4.4 µM.
Still for that read-out and setting: in the case of `COc1cc(OCC(F)F)c(OC)cc1CC(C)N` (stereo not shown) [MDFEM, 4-(2,2-difluoroethoxy)-2,5-dimethoxyamphetamine] it was more than 4.8 µM.
In the case of `COc1cc(OCCF)c(OC)cc1CC(C)N` (stereo not shown) [MFEM, 2,5-dimethoxy-4-(2-fluoroethoxy)amphetamine], the Ki was more than 4.8 µM.
Same read-out and setting: with `COc1cc(OC(C)C)c(OC)cc1CC(C)N` (stereo not shown) [MIPM, 2,5-dimethoxy-4-isopropoxyamphetamine] the figure was more than 4.8 µM; with `C=C(C)COc1cc(OC)c(CC(C)N)cc1OC` (stereo not shown) [MMALM, 2,5-dimethoxy-4-methallyloxyamphetamine], more than 4.8 µM; with `COc1cc(OCC(F)(F)F)c(OC)cc1CC(C)N` (stereo not shown) [MTFEM, 2,5-dimethoxy-4-(2,2,2-trifluoroethoxy)amphetamine], more than 4.8 µM.
